Test results published in ChEMBL document CHEMBL3259638, “Preliminary investigations into triazole derived androgen receptor antagonists” (Bioorg Med Chem, 2014).

Experiments:
PC-3 = test: Cytotoxicity against human PC3 cells assessed growth inhibition; format: functional, cell-based
LNCaP = test: Cytotoxicity against human LNCAP cells; format: cell-based

| SMILES | IC50 (PC-3) | Activity (LNCaP) |
| --- | --- | --- |
| CC(C)(O)c1cn(-c2ccc(Cl)c(C(F)(F)F)c2)nn1 | 69 µM |  |
| CC(C)(O)c1cn(-c2ccc(C#N)c(C(F)(F)F)c2)nn1 |  | Toxic |
| CC(C)(O)c1cn(-c2ccc([N+](=O)[O-])c(C(F)(F)F)c2)nn1 | 63 µM |  |
| CC(C)(O)c1cn(-c2cc(C(F)(F)F)cc(C(F)(F)F)c2)nn1 | 42 µM |  |
